What was measured:
Format in all cases: in vivo
[1] = system: field corn (Zea mays L., var. Dekalb 535, CORN); assay: Pre-emerge test, crop safety; settings: for Pre-emerge Herbicidal Activity CORN: crop damage rating 0-100, 14 days after application; for phytotoxicity rating CORN (crop damage): pre-emerge, 14 days after application, scale 0-100
Text: (§1) A standard greenhouse herbicide activity screening system was used to evaluate the herbicidal efficacy and crop safety of these test compounds. Seven broadleaf weed species including redroot pigweed (Amaranthus retroflexus, AMARE, velvetleaf (Abutilon theophrasti, ABUTH), sicklepod (Cassia obtusifolia, CASOB), ivyleaf morningglory (Ipomoea hederacea, IPOHE), lambsquarters (Chenopodium album, CHEAL), common ragweed (Ambrosia artemisizfolia L., AMBEL), and cocklebur (Xanthium strumarium, XANST) were used as test species. Four grass weed species including green foxtail (Setaria viridis, SETVI), barnyardgrass (Echinochloa crus-galli, ECHCG), johnsongrass (Sorghum halepense, SORHA), and large crabgrass (Digitaria sanguinalis, DIGSA) were also used. In addition, three crop species, field corn (Zea mays L., var. Dekalb 535, CORN), soybean (Glycine max L., var. Pella 86, SOY), and is upland rice (Oryza sp., var. Tebonnet, RICE) were included.
(§2) All plants were grown in 10 cm square plastic pots which were filled with a sandy loam soil mix. For pre-emerge tests, seeds were planted one day prior to application of the test compounds. For post-emerge tests, seeds were planted 8-21 days prior to the test to allow emergence and good foliage development prior to application of the test substances. At the time of the post-emerge application, plants of all species were usually at the 2-3 leaf stage of development.
(§3) All test compounds Were dissolved in acetone and applied to the test units in a volume of 187 l /ha. Test materials were applied at rates ranging from 15 g ai/ha to 1000 g ai/ha using a track sprayer equipped with a TJ8001E even flow flat fan spray nozzle. Plants were arranged on a shelf so that the top of the canopy (post-emerge) or top of the soil surface (pre-emerge) was 40-45 cm below the nozzle. Pressurized air was used to force the test solution through the nozzle as it was mechanically advanced (via electrically driven chain drive) over the top of all test plants/pots. This application simulates a typical commercial field herbicide application.
(§4) In the post-emerge test, a commercial non-ionic surfactant was also included (0.25% v/v) to enhance wetting of the leaf surfaces of target plants. Immediately after application, test units of the pre-emerge applications were watered at the soil surface to incorporate the test materials. Subsequently, these test units were bottom-watered. Post-emerge test units were always bottom-watered.
(§5) At 14 days after application of the test materials, phytotoxicity ratings were recorded. A rating scale of 0-100 was used as previously described in Research Methods in Weed Science, 2nd edition, B. Truelove, Ed., Southern Weed Science Society, Auburn University, Auburn, Ala. 1977. Briefly, “0” corresponds to no damage and “100” corresponds to complete death of all plants in the test unit. This scale was used both to determine efficacy against weed species and damage to crop species. Herbicide activity data for various compounds of this invention, which are shown by compound No. in Tables 1-8, are shown in Tables 11 and 12.

[2] = system: upland rice (Oryza sp., var. Tebonnet, RICE); assay: Pre-emerge test, crop safety; settings: for Pre-emerge Herbicidal Activity RICE: crop damage rating 0-100, 14 days after application; for phytotoxicity rating RICE (crop damage): pre-emerge, 14 days after application, scale 0-100
Text: as §1, §2, §3, §4, §5

[3] = system: barnyardgrass (Echinochloa crus-galli, ECHCG); assay: Post-emerge test, greenhouse herbicide activity screening; settings: post-emerge, 14 days after application, rating scale 0-100
Text: as §1, §2, §3, §4, §5

[4] = system: lambsquarters (Chenopodium album, CHEAL); assay: as above; settings: post-emerge, 14 days after application, rating scale 0-100
Text: as §1, §2, §3, §4, §5

[5] = system: sicklepod (Cassia obtusifolia, CASOB); assay: as above; settings: post-emerge, 14 days after application, rating scale 0-100
Text: as §1, §2, §3, §4, §5

[6] = system: large crabgrass (Digitaria sanguinalis, DIGSA); assay: as above; settings: post-emerge, 14 days after application, rating scale 0-100
Text: as §1, §2, §3, §4, §5

[7] = system: ivyleaf morningglory (Ipomoea hederacea, IPOHE); assay: as above; settings: post-emerge, 14 days after application, rating scale 0-100
Text: as §1, §2, §3, §4, §5

[8] = system: green foxtail (Setaria viridis, SETVI); assay: as above; settings: post-emerge, 14 days after application, rating scale 0-100
Text: as §1, §2, §3, §4, §5

[9] = system: velvetleaf (Abutilon theophrasti, ABUTH); assay: as above; settings: post-emerge, 14 days after application, rating scale 0-100
Text: as §1, §2, §3, §4, §5

[10] = system: redroot pigweed (Amaranthus retroflexus, AMARE); assay: as above; settings: post-emerge, 14 days after application
Text: as §1, §2, §3, §4, §5

[11] = system: barnyardgrass (Echinochloa crus-galli, ECHCG); assay: Pre-emerge test, greenhouse herbicide activity screening; settings: for Pre-emerge Herbicidal Activity ECHCG: phytotoxicity rating 0-100, 14 days after application; for phytotoxicity rating ECHCG: pre-emerge, 14 days after application, scale 0-100
Text: as §1, §2, §3, §4, §5

[12] = system: lambsquarters (Chenopodium album, CHEAL); assay: as above; settings: for Pre-emerge Herbicidal Activity CHEAL: phytotoxicity rating 0-100, 14 days after application; for phytotoxicity rating CHEAL: pre-emerge, 14 days after application, scale 0-100
Text: as §1, §2, §3, §4, §5

[13] = system: sicklepod (Cassia obtusifolia, CASOB); assay: as above; settings: for Pre-emerge Herbicidal Activity CASOB: phytotoxicity rating 0-100, 14 days after application; for phytotoxicity rating CASOB: pre-emerge, 14 days after application, scale 0-100
Text: as §1, §2, §3, §4, §5

[14] = system: large crabgrass (Digitaria sanguinalis, DIGSA); assay: as above; settings: for Pre-emerge Herbicidal Activity DIGSA: phytotoxicity rating 0-100, 14 days after application; for phytotoxicity rating DIGSA: pre-emerge, 14 days after application, scale 0-100
Text: as §1, §2, §3, §4, §5

[15] = system: ivyleaf morningglory (Ipomoea hederacea, IPOHE); assay: as above; settings: for Pre-emerge Herbicidal Activity IPOHE: phytotoxicity rating 0-100, 14 days after application; for phytotoxicity rating IPOHE: pre-emerge, 14 days after application, scale 0-100
Text: as §1, §2, §3, §4, §5

[16] = system: green foxtail (Setaria viridis, SETVI); assay: as above; settings: for Pre-emerge Herbicidal Activity SETVI: phytotoxicity rating 0-100, 14 days after application; for phytotoxicity rating SETVI: pre-emerge, 14 days after application, scale 0-100
Text: as §1, §2, §3, §4, §5

[17] = system: velvetleaf (Abutilon theophrasti, ABUTH); assay: as above; settings: for Pre-emerge Herbicidal Activity ABUTH: phytotoxicity rating 0-100, 14 days after application; for phytotoxicity rating ABUTH: pre-emerge, 14 days after application, scale 0-100
Text: as §1, §2, §3, §4, §5

[18] = system: field corn (Zea mays L., var. Dekalb 535, CORN); assay: Post-emerge test, crop safety; settings: post-emerge, 14 days after application, rating scale 0-100
Text: as §1, §2, §3, §4, §5

[19] = system: upland rice (Oryza sp., var. Tebonnet, RICE); assay: Post-emerge test, crop safety; settings: post-emerge, 14 days after application, rating scale 0-100
Text: as §1, §2, §3, §4, §5

[20] = system: redroot pigweed (Amaranthus retroflexus, AMARE); assay: Pre-emerge test, greenhouse herbicide activity screening; settings: for Pre-emerge Herbicidal Activity AMARE: phytotoxicity rating 0-100, 14 days after application; for phytotoxicity rating AMARE: pre-emerge, 14 days after application, scale 0-100
How it was run: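 Herbicidal damage is scored 0 (none) to 100 (complete plant death) two weeks after a simulated field spray. Rates span 15–1000 g ai/ha, delivered in acetone at 187 l/ha. For post-emergence treatments, plants have 2–3 leaves and the spray carries 0.25% v/v non-ionic surfactant.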

[21] = 250 g ai/ha, rating scale 0-100

COc1c(Cl)ccc(-n2c(=O)cc(C(F)(F)F)n(C)c2=O)c1NC(=O)c1ccc2ccccc2c1 [2-202]
Pre-emerge Herbicidal Activity CORN ([1]; 63 g ai/ha): 0 | Pre-emerge Herbicidal Activity CORN ([1]; 250 g ai/ha): 50 | Pre-emerge Herbicidal Activity RICE ([2]; 63 g ai/ha): 40 | Pre-emerge Herbicidal Activity RICE ([2]; 250 g ai/ha): 90 | phytotoxicity rating ECHCG ([3]; 63 g ai/ha): 10 | phytotoxicity rating ECHCG ([3]; 250 g ai/ha): 40 | phytotoxicity rating CHEAL ([4]; 63 g ai/ha): 100 | phytotoxicity rating CHEAL ([4]; 250 g ai/ha): 100 | phytotoxicity rating CASOB ([5]; 63 g ai/ha): 100 | phytotoxicity rating CASOB ([5]; 250 g ai/ha): 100 | phytotoxicity rating DIGSA ([6]; 63 g ai/ha): 0 | phytotoxicity rating DIGSA ([6]; 250 g ai/ha): 30 | phytotoxicity rating IPOHE ([7]; 63 g ai/ha): 100 | phytotoxicity rating IPOHE ([7]; 250 g ai/ha): 100 | phytotoxicity rating SETVI ([8]; 63 g ai/ha): 30 | phytotoxicity rating SETVI ([8]; 250 g ai/ha): 40 | phytotoxicity rating ABUTH ([9]; 63 g ai/ha): 100 | phytotoxicity rating ABUTH ([9]; 250 g ai/ha): 100 | phytotoxicity rating AMARE ([10]; 63 g ai/ha, rating scale 0-100 (0 no damage, 100 complete death)): 100 | phytotoxicity rating AMARE [10, 21]: 100 | Pre-emerge Herbicidal Activity ECHCG ([11]; 63 g ai/ha): 90 | Pre-emerge Herbicidal Activity ECHCG ([11]; 250 g ai/ha): 100 | Pre-emerge Herbicidal Activity CHEAL ([12]; 63 g ai/ha): 100 | Pre-emerge Herbicidal Activity CHEAL ([12]; 250 g ai/ha): 100 | Pre-emerge Herbicidal Activity CASOB ([13]; 63 g ai/ha): 30 | Pre-emerge Herbicidal Activity CASOB ([13]; 250 g ai/ha): 80 | Pre-emerge Herbicidal Activity DIGSA ([14]; 63 g ai/ha): 30 | Pre-emerge Herbicidal Activity DIGSA ([14]; 250 g ai/ha): 100 | Pre-emerge Herbicidal Activity IPOHE ([15]; 63 g ai/ha): 100 | Pre-emerge Herbicidal Activity IPOHE ([15]; 250 g ai/ha): 100 | Pre-emerge Herbicidal Activity SETVI ([16]; 63 g ai/ha): 40 | Pre-emerge Herbicidal Activity SETVI ([16]; 250 g ai/ha): 100 | Pre-emerge Herbicidal Activity ABUTH ([17]; 63 g ai/ha): 100 | Pre-emerge Herbicidal Activity ABUTH ([17]; 250 g ai/ha): 100 | phytotoxicity rating CORN (crop damage) ([18]; 63 g ai/ha): 15 | phytotoxicity rating CORN (crop damage) ([18]; 250 g ai/ha): 30 | phytotoxicity rating RICE (crop damage) ([19]; 63 g ai/ha): 20 | phytotoxicity rating RICE (crop damage) ([19]; 250 g ai/ha): 60 | Pre-emerge Herbicidal Activity AMARE ([20]; 63 g ai/ha): 100 | Pre-emerge Herbicidal Activity AMARE ([20]; 250 g ai/ha): 100

COc1c(C#N)cc(F)c(-n2c(=O)cc(C(F)(F)F)n(C)c2=O)c1NC(=O)c1ccc2ccccc2c1 [2-181]
phytotoxicity rating CORN (crop damage) ([1]; 63 g ai/ha): 0 | phytotoxicity rating CORN (crop damage) ([1]; 250 g ai/ha): 5 | phytotoxicity rating RICE (crop damage) ([2]; 63 g ai/ha): 15 | phytotoxicity rating RICE (crop damage) ([2]; 250 g ai/ha): 80 | ECHCG phytotoxicity rating ([3]; 63 g ai/ha): 40 | ECHCG phytotoxicity rating ([3]; 250 g ai/ha): 60 | CHEAL phytotoxicity rating ([4]; 63 g ai/ha): 100 | CHEAL phytotoxicity rating ([4]; 250 g ai/ha): 100 | CASOB phytotoxicity rating ([5]; 63 g ai/ha): 100 | CASOB phytotoxicity rating ([5]; 250 g ai/ha): 100 | DIGSA phytotoxicity rating ([6]; 63 g ai/ha): 30 | DIGSA phytotoxicity rating ([6]; 250 g ai/ha): 70 | IPOHE phytotoxicity rating ([7]; 63 g ai/ha): 100 | IPOHE phytotoxicity rating ([7]; 250 g ai/ha): 100 | SETVI phytotoxicity rating ([8]; 63 g ai/ha): 70 | SETVI phytotoxicity rating ([8]; 250 g ai/ha): 80 | ABUTH phytotoxicity rating ([9]; 63 g ai/ha): 100 | ABUTH phytotoxicity rating ([9]; 250 g ai/ha): 100 | AMARE phytotoxicity rating ([10]; 63 g ai/ha, rating scale 0-100): 100 | AMARE phytotoxicity rating [10, 21]: 100 | phytotoxicity rating ECHCG ([11]; 63 g ai/ha): 40 | phytotoxicity rating ECHCG ([11]; 250 g ai/ha): 80 | phytotoxicity rating CHEAL ([12]; 63 g ai/ha): 100 | phytotoxicity rating CHEAL ([12]; 250 g ai/ha): 100 | phytotoxicity rating CASOB ([13]; 63 g ai/ha): 10 | phytotoxicity rating CASOB ([13]; 250 g ai/ha): 90 | phytotoxicity rating DIGSA ([14]; 63 g ai/ha): 60 | phytotoxicity rating DIGSA ([14]; 250 g ai/ha): 90 | phytotoxicity rating IPOHE ([15]; 63 g ai/ha): 30 | phytotoxicity rating IPOHE ([15]; 250 g ai/ha): 80 | phytotoxicity rating SETVI ([16]; 63 g ai/ha): 70 | phytotoxicity rating SETVI ([16]; 250 g ai/ha): 95 | phytotoxicity rating ABUTH ([17]; 63 g ai/ha): 100 | phytotoxicity rating ABUTH ([17]; 250 g ai/ha): 100 | CORN phytotoxicity rating (crop damage) ([18]; 63 g ai/ha): 10 | CORN phytotoxicity rating (crop damage) ([18]; 250 g ai/ha): 20 | RICE phytotoxicity rating (crop damage) ([19]; 63 g ai/ha): 15 | RICE phytotoxicity rating (crop damage) ([19]; 250 g ai/ha): 60 | phytotoxicity rating AMARE ([20]; 63 g ai/ha): 100 | phytotoxicity rating AMARE ([20]; 250 g ai/ha): 100

From patent publication US6355799B1, “Substituted benzene compounds, process for their preparation, and herbicidal and defoliant compositions containing them” (ISK Americas Incorporated, priority 1997, dated 2002)
